Like-named read-outs stand apart in the source and are kept apart here.

For assay [1], the system named is HCV genotype 1a (H77 strain) replicon in HUH-7 cells. Nature of the assay: HCV replicon luciferase reporter assay, genotype 1a. In kind it is cell-based. To be noted: Hepatitis C virus, Huh-7, 72 h, HCV genotype 1a replicon luciferase, 3 days incubation. The procedure, abridged: (§1)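 Replicon inhibition for both genotypes was measured as Renilla luciferase signal (EnduRen, 7.5 μM final, 2 h) after 3-day, 37° C exposure of replicon-bearing HUH-7 cells in 4% FCS DMEM, 0.5% DMSO. The 1b construct carries S1179I; the 1a H77 construct carries P1496L and S2204I. Twenty-point, 3-fold dilutions were fitted four-parametrically for EC50, and CC50 was taken from multiplexed Cell Titer-Blue.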

Assay [2] relates to HCV genotype 1b (Con1) replicon in HUH-7 cells. The assay is described as follows: HCV replicon luciferase reporter assay, genotype 1b. In kind it is cell-based. The note with it: Hepatitis C virus, Huh-7, 72 h, HCV genotype 1b replicon luciferase, 3 days incubation. The procedure, abridged:
as §1

[3] abbreviates: GETYPE1A, read-out: LE_1a (EC50, range).
The mark [4] stands for this setting: GETYPE1B, read-out: LE_1b (EC50, range).

As to `COc1cc2ccnc(O[C@@H]3C[C@H]4C(=O)N[C@]5(C(=O)NS(=O)(=O)C6(CF)CC6)C[C@H]5/C=C\CC[C@@H](C)C[C@@H](C)[C@H](N)C(=O)N4C3)c2cc1F` [Compound 4235, (2R,6S,7R,9R,13aS,14aR,16aS,Z)-6-amino-2-(7-fluoro-6-methoxyisoquinolin-1-yloxy)-N-(1-(fluoromethyl)cyclopropylsulfonyl)-7,9-dimethyl-5,16-dioxo-1,2,3,5,6,7,8,9,10,11,13a,14,14a,15,16,16a-hexadecahydrocyclopropa[e]pyrrolo[1,2-a][1,4]diazacyclopentadecine-14a-carboxamide], the EC50 fell in the range of 4.82 to 103 nM in assay [1] (read-out: LE_1a (EC50, range)) and 4.82 to 103 nM in assay [2] (read-out: LE_1b (EC50, range)).
Consider `CC[C@@H]1C[C@H](C)CC/C=C\[C@@H]2C[C@@]2(C(=O)NS(=O)(=O)C2(C)CC2)NC(=O)[C@@H]2C[C@@H](Oc3ncc(OC)c4cc(OC)c(F)cc34)CN2C(=O)[C@H]1NC(=O)OC(C)(C)C(F)(F)F` [Compound 4236], for which the EC50 in assay [1] (setting [3]) and in assay [2] (setting [4]) was less than 5.46 nM throughout.
On to `CC[C@@H]1C[C@H](C)CC/C=C\[C@@H]2C[C@@]2(C(=O)NS(=O)(=O)C2(C)CC2)NC(=O)[C@@H]2C[C@@H](Oc3ncc(N4CCOCC4)c4cc(OC)c(F)cc34)CN2C(=O)[C@H]1NC(=O)OC(C)(C)C(F)(F)F` [Compound 4237], for which the EC50 in assay [1] (setting [3]) and in assay [2] (setting [4]) was less than 5.46 nM throughout.
For `COc1cc2c(OC)cnc(O[C@@H]3C[C@H]4C(=O)N[C@]5(C(=O)NS(=O)(=O)C6(CO)CC6)C[C@H]5/C=C\CC[C@@H](C)C[C@@H](C)[C@H](NC(=O)OC(C)(C)C(F)(F)F)C(=O)N4C3)c2cc1F` [Compound 4238], the EC50 in assay [1] (setting [3]) and in assay [2] (setting [4]) was 4.82 to 103 nM each time.
`CC[C@@H]1C[C@H](C)CC/C=C\[C@@H]2C[C@@]2(C(=O)NS(=O)(=O)C2CC2)NC(=O)[C@@H]2C[C@@H](Oc3ncnc4cc(OC)ccc34)CN2C(=O)[C@H]1NC(=O)OC(C)(C)C` [Compound 4239, tert-butyl ((2R,6S,7R,9R,13aS,14aR,16aS,Z)-14a-((cyclopropylsulfonyl)carbamoyl)-7-ethyl-2-((7-methoxyquinazolin-4-yl)oxy)-9-methyl-5,16-dioxo-1,2,3,5,6,7,8,9,10,11,13a,14,14a,15,16,16a-hexadecahydrocyclopropa[e]pyrrolo[1,2-a][1,4]diazacyclopentadecin-6-yl)carbamate]: the EC50 was less than 5.46 nM in assay [1] (read-out: LE_1a (EC50, range)) and less than 5.46 nM in assay [2] (read-out: LE_1b (EC50, range)).
Turning to `CC[C@@H]1C[C@H](C)CC/C=C\[C@@H]2C[C@@]2(C(=O)NS(=O)(=O)C2CC2)NC(=O)[C@@H]2C[C@@H](Oc3ncc(N4CCOCC4)c4cc(OC)c(F)cc34)CN2C(=O)[C@H]1NC(=O)OC(C)(C)C` [Compound 4240, tert-butyl ((2R,6S,7R,9R,13aS,14aR,16aS,Z)-14a-((cyclopropylsulfonyl)carbamoyl)-7-ethyl-2-((7-fluoro-6-methoxy-4-morpholinoisoquinolin-1-yl)oxy)-9-methyl-5,16-dioxo-1,2,3,5,6,7,8,9,10,11,13a,14,14a,15,16,16a-hexadecahydrocyclopropa[e]pyrrolo[1,2-a][1,4]diazacyclopentadecin-6-yl)carbamate], the EC50 in assay [1] (read-out: LE_1a (EC50)) is 1.23 nM; in assay [1] (read-out: LE_1a (EC50, range)), 1.01 to 5 nM; in assay [2] (read-out: LE_1b (EC50)), 1.09 nM; in assay [2] (read-out: LE_1b (EC50, range)) it was 1.01 to 5 nM.
For the compound `CC[C@@H]1C[C@H](C)CC/C=C\[C@@H]2C[C@@]2(C(=O)NS(=O)(=O)C2(C)CC2)NC(=O)[C@@H]2C[C@@H](Oc3ncc(N(C)C)c4cc(OC)ccc34)CN2C(=O)[C@H]1NC(=O)OC(C)(C)C(F)(F)F` [Compound 4241], the EC50 in assay [1] (setting [3]) and in assay [2] (setting [4]) was 1.01 to 5 nM throughout.

The record behind these values is US9499550B2 (BRISTOL-MYERS SQUIBB COMPANY, priority 2012, dated 2016).
